# Tests used:
# [1] = system: PBMC from healthy volunteers; test: CellTiter-Blue Cell Viability Assay, PBMC from healthy volunteers; assay type: cell-based; settings: Homo sapiens, cell toxicity, culture 24, 48 and 72 h (time of the values not stated)
# Protocol: (§1) The CellTiter-Blue® Cell Viability Assay provides a homogeneous, fluorometric method for estimating the number of viable cells present in multi-well plates. The assay uses the indicator dye resazurin to measure the metabolic capacity of cells. Viable cells retain the ability to reduce resazurin into resorufin, which is highly fluorescent.
# (§2) Stock solutions (10 or 100 mM in DMSO) of compounds were serially diluted 1:2 in 11 concentrations and 25 nL/well (100 mM stock) or 50 nL/well (10 mM stock) were acoustically dispensed in assay plates with an EDC acoustic dispenser. Final starting concentration in the assay was 20 μM (0.2% DMSO) or 100 μM (0.1% DMSO) for test compounds.
# (§3) Peripheral blood mononuclear cells (PBMC) from CLL patients or healthy volunteers were seeded in assay plates (384-well black/clear, Greiner #781091) pre-dispensed with compounds, 25 μL/well, and cultured for 24, 48 and 72 h. The cell concentration was 50 000 cells/well for PBMC from CLL patients or healthy volunteers. After 24, 48 and 72 h culture, Celltiter Blue reagent was added (5 μL/well) and the plates were incubated for 2 h. The plates were read in an Envision fluorescence reader (PerkinElmer) with Ex544 nm/Em590 nm. Results were calculated as % cytotoxicity compared to background (cells treated with 0.2% DMSO).
# (§4) Thus, IC50 values for cell toxicity in PBMC from CLL patients as well as healthy volunteers for some compounds of the invention are shown in Table 3 as measured by the CellTiter-Blue® Cell Viability Assay.
# PBMC from CLL patients = test: CellTiter-Blue Cell Viability Assay, PBMC from CLL patients; assay type: cell-based; settings: Homo sapiens, cell toxicity, culture 24, 48 and 72 h (time of the values not stated)
# Protocol: as §1, §2, §3, §4
smiles,measurement,setting,value
"CCOCCN1CCN(c2ccc(-c3nc4c(NC5CCN(CCC#N)CC5)c(Br)cnc4[nH]3)cc2)CC1=O [Example 406, 3-{4-[(6-Bromo-2-{4-[4-(2-ethoxyethyl)-3-oxopiperrazin-1-yl]phenyl}-3H-imidazo[4,5-b]pyridin-7-yl)amino]piperidin-1-yl}propanenitrile]",IC50,[1],> 20000 nM
same,IC50,PBMC from CLL patients,230 nM

# Reference: US11660303B2, “2-phenylimidazo[4,5-b]pyridin-7-amine derivates useful as inhibitors of mammalian tyrosine kinase ROR1 activity” (KANCERA AB, priority 2016, dated 2023)
